Results: patent US7053097B1, “Inhibitors of glycogen synthase 3 kinase” (Chiron Corporation, priority 1996, dated 2006)

Target: GSK-3β (Homo sapiens, UniProt P49841)
Assay: GSK3 kinase inhibition assay, biotin-phosphopeptide substrate, streptavidin plate scintillation counting
Type: biochemical
Settings: compound at 1 μM; 180 min at room temperature
Procedure: (B) The compounds prepared in Example 1 above were assayed for activity as follows:
A 96-well round bottom plate was blocked by incubation with 400 μl/well 1% BSA/PBS for 60 min at room temperature. The blocking reagent was then aspirated. An enzyme/substrate buffer was prepared (1.225 ml 1M Tris-HCl, pH 7.5, 0.41 ml 1M MgCl2, 41 μl DTT, 250 μl 500 μg/ml GSK-3β, 9.5 μl 5 mg/ml biotin-phosphopeptide, 33.1 ml 1% BSA/PBS), and 300 μl enzyme/substrate/buffer was added to each well.
Varying concentrations of each compound were added to individual wells, or staurosporine in DMSO (final concentrations of staurosporine 100 nM or 20 nM). Next 50 μl/well ATP mixture (3.85 μl 10 mM cold ATP, 8 μl hot ATP, 5.5 ml H2O) was added, and the reaction allowed to proceed for 180 min at room temperature.
Three streptavidin-coated Labsystems Combiplate 8 plates were blocked with 1% BSA/PBS, 300 μl/well, for ≧60 min at room temperature, and the blocking reagent aspirated. Stopping reagent (50 μM ATP, 20 mM EDTA) (100 μl/well) was added to the streptavidin-coated plates, and 100 μl of the enzyme reaction mixture transferred to the streptavidin-coated plates in triplicate. […] Finally, Microscint-20 scintillation fluid (200 μl/well) was added to the plates, the plates sealed, and after incubating for 30 min, counted on a TopCount counter.

Sequence of GSK-3β (P49841 whole entry, species assumed): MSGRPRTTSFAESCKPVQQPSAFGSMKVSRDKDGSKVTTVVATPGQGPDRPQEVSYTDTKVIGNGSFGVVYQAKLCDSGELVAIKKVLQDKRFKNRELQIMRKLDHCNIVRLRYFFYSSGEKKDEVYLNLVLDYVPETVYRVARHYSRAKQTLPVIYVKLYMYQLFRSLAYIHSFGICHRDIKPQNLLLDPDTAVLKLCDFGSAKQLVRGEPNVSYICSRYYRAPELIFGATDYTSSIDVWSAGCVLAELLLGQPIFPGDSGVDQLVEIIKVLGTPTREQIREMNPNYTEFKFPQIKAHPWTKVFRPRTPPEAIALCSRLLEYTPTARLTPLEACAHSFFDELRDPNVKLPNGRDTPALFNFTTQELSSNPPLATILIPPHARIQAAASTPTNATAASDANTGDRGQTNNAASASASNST

inhibition at 1 µM: 63%
Structure (SMILES): COCC(=O)N(CC(N)=O)c1nc(NCc2ccc(C(F)(F)F)cc2)c2ncn(C)c2n1 [Compound 21208]
